In ChEMBL document CHEMBL4138123, “Design, synthesis and biological evaluation of novel pyrazolochalcones as potential modulators of PI3K/Akt/mTOR pathway and inducers of apoptosis in breast cancer cells” (Eur J Med Chem, 2017):

Experiments:
Type in all cases: functional
SK-OV-3 = test: Cytotoxicity against human SKOV3 cells assessed as cell growth at 100 uM after 48 hrs by sulforhodamine B assay relative to control; settings: SK-OV-3, 48 h, read-out: Activity
Malme-3M = test: Cytotoxicity against human MALME-3M cells assessed as cell growth at 0.01 uM after 48 hrs by sulforhodamine B assay relative to control; settings: read-out: Activity
NCI-H322M = test: Cytotoxicity against human NCI-H322M cells assessed as cell growth at 100 uM after 48 hrs by sulforhodamine B assay relative to control; settings: read-out: Activity
T47D [1] = test: Cytotoxicity against human T47D cells assessed as cell growth at 100 uM after 48 hrs by sulforhodamine B assay relative to control; settings: read-out: Activity
HL-60(TB) [2] = test: Cytotoxicity against human HL-60(TB) cells assessed as cell growth at 1 uM after 48 hrs by sulforhodamine B assay relative to control; settings: HL-60, 48 h, read-out: Activity
U-251 [3] = test: Cytotoxicity against human U251 cells assessed as cell growth at 100 uM after 48 hrs by sulforhodamine B assay relative to control; settings: U-251, 48 h, read-out: Activity
SNB-19 [4] = test: Cytotoxicity against human SNB19 cells assessed as cell growth at 10 uM after 48 hrs by sulforhodamine B assay relative to control; settings: SNB-19, 48 h, read-out: Activity
SK-MEL-28 = test: Cytotoxicity against human SK-MEL-28 cells assessed as cell growth at 0.01 uM after 48 hrs by sulforhodamine B assay relative to control; settings: SK-MEL-28, 48 h, read-out: Activity
RPMI-8226 [5] = test: Cytotoxicity against human RPMI8226 cells assessed as cell growth at 1 uM after 48 hrs by sulforhodamine B assay relative to control; settings: RPMI-8226, 48 h, read-out: Activity
SN12C [6] = test: Cytotoxicity against human SN12C cells assessed as cell growth at 10 uM after 48 hrs by sulforhodamine B assay relative to control; settings: read-out: Activity
SN12C [7] = test: Cytotoxicity against human SN12C cells assessed as cell growth at 1 uM after 48 hrs by sulforhodamine B assay relative to control; settings: read-out: Activity
IGROV-1 [8] = test: Cytotoxicity against human IGROV1 cells assessed as cell growth at 10 uM after 48 hrs by sulforhodamine B assay relative to control; settings: IGROV-1, 48 h, read-out: Activity
NCI/ADR-RES = test: Cytotoxicity against human NCI/ADR-RES cells assessed as cell growth at 0.01 uM after 48 hrs by sulforhodamine B assay relative to control; settings: read-out: Activity
OVCAR-5 = test: Cytotoxicity against human OVCAR5 cells assessed as cell growth at 0.1 uM after 48 hrs by sulforhodamine B assay relative to control; settings: OVCAR-5, 48 h, read-out: Activity
SNB-19 [9] = test: Cytotoxicity against human SNB19 cells assessed as cell growth at 0.1 uM after 48 hrs by sulforhodamine B assay relative to control; settings: SNB-19, 48 h, read-out: Activity
T47D [10] = test: Cytotoxicity against human T47D cells assessed as cell growth at 0.1 uM after 48 hrs by sulforhodamine B assay relative to control; settings: read-out: Activity
A549 [11] = test: Cytotoxicity against human A549/ATCC cells assessed as cell growth at 0.1 uM after 48 hrs by sulforhodamine B assay relative to control; settings: A549, 48 h, read-out: Activity
A549 [12] = test: Cytotoxicity against human A549/ATCC cells assessed as cell growth at 1 uM after 48 hrs by sulforhodamine B assay relative to control; settings: A549, 48 h, read-out: Activity
U-251 [13] = test: Cytotoxicity against human U251 cells assessed as cell growth at 10 uM after 48 hrs by sulforhodamine B assay relative to control; settings: U-251, 48 h, read-out: Activity
CCRF-CEM = test: Cytotoxicity against human CCRF-CEM cells assessed as growth inhibition after 48 hrs by sulforhodamine B assay
HL-60(TB) [14] = test: Cytotoxicity against human HL-60(TB) cells assessed as growth inhibition after 48 hrs by sulforhodamine B assay; settings: HL-60, 48 h
Hs-578T = test: Cytotoxicity against human Hs 578T cells assessed as cell growth at 1 uM after 48 hrs by sulforhodamine B assay relative to control; settings: read-out: Activity
A498 = test: Cytotoxicity against human A498 cells assessed as cell growth at 0.01 uM after 48 hrs by sulforhodamine B assay relative to control; settings: A498, 48 h, read-out: Activity
MOLT-4 = test: Cytotoxicity against human MOLT4 cells assessed as growth inhibition after 48 hrs by sulforhodamine B assay; settings: MOLT-4, 48 h; for CC50: read-out: LC50 (the source's name)
NCI-H522 = test: Cytotoxicity against human NCI-H522 cells assessed as cell growth at 0.01 uM after 48 hrs by sulforhodamine B assay relative to control; settings: NCI-H522, 48 h, read-out: Activity
PC-3 = test: Cytotoxicity against human PC3 cells assessed as cell growth at 0.1 uM after 48 hrs by sulforhodamine B assay relative to control; settings: PC-3, 48 h, read-out: Activity
RPMI-8226 [15] = test: Cytotoxicity against human RPMI8226 cells assessed as cell growth at 0.1 uM after 48 hrs by sulforhodamine B assay relative to control; settings: RPMI-8226, 48 h, read-out: Activity
A549 [16] = test: Cytotoxicity against human A549/ATCC cells assessed as cell growth at 10 uM after 48 hrs by sulforhodamine B assay relative to control; settings: A549, 48 h, read-out: Activity
COLO 205 = test: Cytotoxicity against human COLO205 cells assessed as cell growth at 0.1 uM after 48 hrs by sulforhodamine B assay relative to control; settings: COLO 205, 48 h, read-out: Activity
HL-60(TB) [17] = test: Cytotoxicity against human HL-60(TB) cells assessed as cell growth at 0.1 uM after 48 hrs by sulforhodamine B assay relative to control; settings: HL-60, 48 h, read-out: Activity
MCF7 [18] = test: Cytotoxicity against human MCF7 cells assessed as growth inhibition after 48 hrs by sulforhodamine B assay; settings: MCF7, 48 h
MCF7 [19] = test: Cytotoxicity against human MCF7 cells assessed as cell growth at 0.1 uM after 48 hrs by sulforhodamine B assay relative to control; settings: MCF7, 48 h, read-out: Activity
UO-31 = test: Cytotoxicity against human UO31 cells assessed as cell growth at 1 uM after 48 hrs by sulforhodamine B assay relative to control; settings: UO-31, 48 h, read-out: Activity
OVCAR-3 [20] = test: Cytotoxicity against human OVCAR3 cells assessed as cell growth at 100 uM after 48 hrs by sulforhodamine B assay relative to control; settings: OVCAR-3, 48 h, read-out: Activity
OVCAR-3 [21] = test: Cytotoxicity against human OVCAR3 cells assessed as growth inhibition after 48 hrs by sulforhodamine B assay; settings: OVCAR-3, 48 h
RPMI-8226 [22] = test: Cytotoxicity against human RPMI8226 cells assessed as cell growth at 0.01 uM after 48 hrs by sulforhodamine B assay relative to control; settings: RPMI-8226, 48 h, read-out: Activity
IGROV-1 [23] = test: Cytotoxicity against human IGROV1 cells assessed as growth inhibition after 48 hrs by sulforhodamine B assay; settings: IGROV-1, 48 h

COc1cc(-c2cc(/C=C/C(=O)c3ccc4c(c3)OCO4)[nH]n2)cc(OC)c1OC
growth at 100 µM (SK-OV-3): -47%
growth at 0.01 µM (Malme-3M): 93%
growth at 100 µM (NCI-H322M): -9%
growth at 100 µM (T47D [1]): -19%
growth at 1 µM (HL-60(TB) [2]): 86%
growth at 100 µM (U-251 [3]): -56%
growth at 10 µM (SNB-19 [4]): 30%
growth at 0.01 µM (SK-MEL-28): 100%
growth at 1 µM (RPMI-8226 [5]): 36%
growth at 10 µM (SN12C [6]): 22%
growth at 1 µM (SN12C [7]): 91%
growth at 10 µM (IGROV-1 [8]): 29%
growth at 0.01 µM (NCI/ADR-RES): 96%
growth at 0.1 µM (OVCAR-5): 91%
growth at 0.1 µM (SNB-19 [9]): 88%
growth at 0.1 µM (T47D [10]): 91%
growth at 0.1 µM (A549 [11]): 98%
growth at 1 µM (A549 [12]): 92%
growth at 10 µM (U-251 [13]): -31%
LC50 (concentration killing 50% of cells) (CCRF-CEM): > 100 µM
TGI (CCRF-CEM): 5.95 µM
LC50 (HL-60(TB) [14]): > 100 µM
TGI (HL-60(TB) [14]): 6.36 µM
growth at 1 µM (Hs-578T): 94%
growth at 0.01 µM (A498): 89%
TGI (MOLT-4): 9.15 µM
CC50 (MOLT-4): > 100 µM
growth at 0.01 µM (NCI-H522): 87%
growth at 0.1 µM (PC-3): 99%
growth at 0.1 µM (RPMI-8226 [15]): 83%
growth at 10 µM (A549 [16]): 26%
growth at 0.1 µM (COLO 205): 101%
growth at 0.1 µM (HL-60(TB) [17]): 95%
LC50 (MCF7 [18]): > 100 µM
growth at 0.1 µM (MCF7 [19]): 94%
growth at 1 µM (UO-31): 81%
growth at 100 µM (OVCAR-3 [20]): -38%
LC50 (OVCAR-3 [21]): > 100 µM
TGI (OVCAR-3 [21]): 12.3 µM
growth at 0.01 µM (RPMI-8226 [22]): 92%
LC50 (IGROV-1 [23]): > 100 µM
TGI (IGROV-1 [23]): 62.1 µM

COc1ccc(C(=O)/C=C/c2cc(-c3cc(OC)c(OC)c(OC)c3)n[nH]2)cc1OC
growth at 100 µM (SK-OV-3): -98%
growth at 0.01 µM (Malme-3M): 95%
growth at 100 µM (NCI-H322M): -90%
growth at 100 µM (T47D [1]): -46%
growth at 1 µM (HL-60(TB) [2]): 67%
growth at 100 µM (U-251 [3]): -99%
growth at 10 µM (SNB-19 [4]): -80%
growth at 0.01 µM (SK-MEL-28): 97%
growth at 1 µM (RPMI-8226 [5]): 2%
growth at 10 µM (SN12C [6]): -82%
growth at 1 µM (SN12C [7]): 80%
growth at 10 µM (IGROV-1 [8]): -84%
growth at 0.01 µM (NCI/ADR-RES): 99%
growth at 0.1 µM (OVCAR-5): 88%
growth at 0.1 µM (SNB-19 [9]): 93%
growth at 0.1 µM (T47D [10]): 98%
growth at 0.1 µM (A549 [11]): 98%
growth at 1 µM (A549 [12]): 84%
growth at 10 µM (U-251 [13]): -100%
LC50 (concentration killing 50% of cells) (CCRF-CEM): > 100 µM
TGI (CCRF-CEM): 3.93 µM
LC50 (HL-60(TB) [14]): 80.2 µM
TGI (HL-60(TB) [14]): 4.18 µM
growth at 1 µM (Hs-578T): 91%
growth at 0.01 µM (A498): 97%
TGI (MOLT-4): 5.56 µM
CC50 (MOLT-4): > 100 µM
growth at 0.01 µM (NCI-H522): 83%
growth at 0.1 µM (PC-3): 95%
growth at 0.1 µM (RPMI-8226 [15]): 79%
growth at 10 µM (A549 [16]): -43%
growth at 0.1 µM (COLO 205): 106%
growth at 0.1 µM (HL-60(TB) [17]): 94%
LC50 (MCF7 [18]): 5.72 µM
TGI (MCF7 [18]): 1.95 µM
growth at 0.1 µM (MCF7 [19]): 91%
growth at 1 µM (UO-31): 67%
growth at 100 µM (OVCAR-3 [20]): -84%
LC50 (OVCAR-3 [21]): 5.97 µM
TGI (OVCAR-3 [21]): 3.17 µM
growth at 0.01 µM (RPMI-8226 [22]): 94%
LC50 (IGROV-1 [23]): 6.48 µM
TGI (IGROV-1 [23]): 3.41 µM
